For test [1], the system named is Spodoptera littoralis. Description: Antifeedant activity against Spodoptera littoralis fed on compound treated artificial diet assessed as food ingested by choice feeding assay relative to control. The class given is functional.
The test system of test [2] is Spodoptera littoralis. Briefly: Antifeedant activity against Spodoptera littoralis fed on compound treated artificial diet assessed as larval weight gain by choice feeding assay relative to control. The test is classed as functional.
The subject of test [3] is Spodoptera littoralis. Briefly: Antifeedant activity against […] Spodoptera littoralis fed on compound treated artificial diet by choice feeding assay. The test is classed as functional, organism-based.
For another test, the system named is Myzus persicae. Briefly: Antifeedant activity against apterous adult Myzus persicae (green peach aphid) fed on compound treated bell pepper assessed as settling on leaf by choice feeding assay (reference value: 52 to 70%). The class given is functional.
For test [4], the system named is Leptinotarsa decemlineata. Briefly: Antifeedant activity against adult Leptinotarsa decemlineata fed on compound treated potato foliage by choice feeding assay. The test is classed as functional, organism-based.

The structures appear in SMILES notation.

Regarding `CC12CCC(C1)C(C)(C)C2=O` (stereo not given) [FENCHONE], the Activity was 91% in the test with Spodoptera littoralis [1], 100% with Spodoptera littoralis [2] and 30% with Myzus persicae. Also, the EC50 (in the test with Spodoptera littoralis [3]; in test [4]) was > 50 microg/cm2 throughout.
For `C=C1C(=O)C(C)=C(C)C1(C)C`, the Activity with Spodoptera littoralis [1] is 88%; in the test on Spodoptera littoralis [2] it was 87%; in the test on Myzus persicae it was 48%. Also, the EC50 (in the test with Spodoptera littoralis [3]; in test [4]) was > 50 microg/cm2 in each case.
Take `CC12CCC(CC1)C(C)(C)O2` [EUCALYPTOL]: the Activity in the test with Spodoptera littoralis [1] turned out to be 95%; in the test on Spodoptera littoralis [2], 96%; in the test on Myzus persicae, 37%. Also, the EC50 (in the test on Spodoptera littoralis [3]; in test [4]) was > 50 microg/cm2 throughout.
As to `CC12CCC(CC1=O)C2(C)C` (stereo not given) [CAMPHOR], the Activity in the test with Spodoptera littoralis [1] was 83%; in the test on Spodoptera littoralis [2], 97%; in the test with Myzus persicae it was 40%. Moreover, the EC50 (with Spodoptera littoralis [3]; in test [4]) was > 50 microg/cm2 each time.

The record behind these values is ChEMBL document CHEMBL3046038, “Antifeedant effects and chemical composition of essential oils from different populations of Lavandula luisieri L” (Biochem Syst Ecol, 2006).
